Consider 89 compounds from a melting point compilation (Tetko et al.; mined from patent text by program, amines drawn as free bases though some values may be those of a salt).

Residues, ends and D or L forms follow the SMILES beside them. *: point of attachment. Cbz = O=C(OCc1ccccc1)*; Boc = CC(C)(C)OC(=O)*

What is called melting point is the temperature of the solid-liquid transition. With `COc1ccc(Oc2c(Br)cc(C=O)cc2Br)cc1Cc1ccc(=O)[nH]n1`, the melting point was 183 to 184 °C. In the case of `CCC(=O)c1ccc2c(c1)C(C(Cl)(Cl)Cl)OC(C(Cl)(Cl)Cl)O2` (centres undefined) it was 96 to 97 °C.

Compound `COc1cccc(N2CCN(C[C@H](CC3CCCCC3)NC(=O)C3CCCCC3)CC2)n1` returned a melting point of 107 to 109 °C. In the case of `CNC(=O)C(=O)c1cc(Cl)cc(C)c1NC(=O)c1cc(Br)nn1-c1ncccc1Cl` it was 246 to 247 °C; in that of `CCC(=O)OC(CC)c1nc2c(C(F)(F)F)cccc2c(O)c1C(=O)Nc1nccs1` (centres undefined), 187 °C; in that of `COc1cc(Nc2ncc3c(n2)-c2ccccc2CCC3)cc(OC)c1OC`, 201 to 202 °C.

Take `Cc1ccc(-c2ssc(=S)c2C)nn1`: the melting point was 168 °C. The figure for `Cc1ccc(-c2ccc3ccccc3c2C(=O)N(C)C)cc1` is 145 to 146 °C. In the case of `CC1Nc2ccc(-c3cc(F)cc(C#N)c3)cc2C(C)(C)O1` (centres undefined) it was 163 to 164 °C; in that of `CCOC(=O)Cc1ccc(CNC(=O)C=Cc2ccc3[nH]cc(CC#N)c3c2)cc1`, 125 to 130 °C; in that of `O=C(NNc1ccc([N+](=O)[O-])cc1)c1ccc(Cl)cc1`, 246 to 248 °C. In the case of `CN(c1ccccc1)c1nc(Cl)nc2sccc12` it was 167 to 168 °C.

With `CCOC(=O)NC(=O)C1c2ccccc2Oc2ccc(Br)cc21` (racemic), the melting point came to 203 °C. On to `C[C@H](NC(=O)OC(C)(C)C)C(=O)C=[N+]=[N-]`, for which the melting point is 99 to 102 °C.

Consider `O=Cc1cn(Cc2ccccc2)nc1OCc1ccccc1`, for which the melting point fell in the range of 85 to 86 °C. In the case of `Cc1ncc(COC(=O)c2ccncc2)cc1O` it was 180 °C; in that of `O=C(N1CCN(c2ccccc2)CC1)N1CC(Oc2ccc(Br)cc2)C1`, 160 to 161 °C. The figure for `CNC(Cc1cc(Br)ccc1N)c1ccsc1C` (centres undefined) is 72.5 to 74 °C; for `CN1CCCC1CNC(=O)c1ccc(S(=O)(=O)N(C)C)c2c1OCCO2` (centres undefined) it is 165 to 166 °C. In the case of `CCOC(=O)c1cc(O)cc2nc(-c3ccc(O)cc3)oc12` it was 305 to 307 °C. In turn, `COc1cccc(CN2Cc3cc(OC)c(O)cc3CC2C)c1` (centres undefined) displayed a melting point of 100 to 105 °C.

Take `CC(C)c1cc(CCC(=O)NCc2cccc(NC(=N)c3cccs3)c2)cc(C(C)C)c1O`: the melting point lay in the range of 144 to 145 °C. The figure for `Cc1cc(=O)[nH]c2ccc(OCCCN3CCC(NC(=O)c4ccccc4)CC3)cc12` is 243 to 245 °C; for `C=CCc1cc(CC(=O)OC)ccc1OCc1ccc2ccccc2n1` it is 71 °C; for `Cc1cc(Oc2cc(C(F)(F)F)nn2C)nc(C(=O)Nc2ccc(F)cc2)c1` it is 133 °C. In the case of `O=C(Nc1cc(C(F)(F)F)ccc1N1CCc2ccccc21)c1ccccc1F` it was 127 to 130 °C. In the case of `O=c1[nH]c2ccccc2cc1CC1CCc2ccccc2N1` (centres undefined) it was 196 to 199 °C. Consider `CSC1=CC2=CN(O)NN2C(SC)=N1`, for which the melting point lay in the range of 275 to 278 °C. Turning to `Cc1c(Cl)cccc1S(=O)O`, the melting point stood at 112 °C. The figure for `Cn1c(C(F)(F)F)cc(=O)n(-c2cc(OC=O)c(Cl)cc2F)c1=O` is 97 to 99 °C.

Turning to `COc1ccc2c(Cl)ccnc2c1`, the melting point lay within 86 to 88 °C. In turn, `CC(C)(C)OC(=O)NCCn1cnc2cnc3ccccc3c21` showed a melting point of 154 to 155 °C.

Regarding `COc1ccc2c(c1)Sc1ccc(SC)cc1C(Cl)C2` (centres undefined), the melting point was in the range of 120 to 123 °C. The figure for `Fc1ccccc1-c1nnc(-c2ccccc2C(F)(F)F)o1` is 68 to 69 °C; for `CCOC(=O)c1cn(CCF)c2nc(N3CCC(NC(C)=O)C3)c(F)cc2c1=O` (centres undefined) it is 269 to 270 °C; for `Cn1nc(Br)c(Br)c1Br` it is 85 to 86 °C. Compound `O=c1c2c[nH]c3ccccc3c-2nn1-c1ccc(O)cc1` had a melting point of 294 to 296 °C. In the case of `CCCc1c(COc2ccc(C(=O)Cc3nnn[nH]3)cc2)ccc(C(C)=O)c1O` it was 207 to 209 °C.

As for `Cc1nc2nsc(N)c2s1`, the melting point lay in the range of 164 to 167 °C. In the case of `O=C1c2nc(O)ccc2C(=O)c2c(-c3ccccc3NC(=O)C(F)(F)F)ccnc21`, the melting point was above 260 °C. The figure for `O=C(NC(Cc1ccc(OCc2ccccc2)cc1)C(=O)O)c1cn2cc(-c3ccncc3)ccc2n1` (centres undefined) is 268 °C; for `O=C(Nc1ccc(Br)cc1CO)C(F)(F)F` it is 97 to 103 °C; for `Cc1ccccc1-c1c(NC(=O)OC(C)(C)C)c(=O)oc2cc3c(cc12)CCC3` it is 154 to 155 °C. The figure for `CN1CCN(C(=O)Nc2ccc3c(c2)NC(=O)/C3=C\c2ccc[nH]2)C1=O` is 267 to 272 °C; for `CCOC(=O)C(CC(C)C)NC(=O)C(Cc1ccccc1)NC(=O)C(CCCCNC(=O)OCc1ccccc1)NC(=O)OC(C)(C)C` (stereo not drawn) (Boc-Lys(Cbz)-Phe-Leu-OEt; configuration not given here) it is 135 to 136 °C. In the case of `Cc1nnc2n1-c1sc(CCC(=O)N3CCOCC3)cc1C(c1ccccc1Cl)=NC2C` (centres undefined) it was 162 to 163 °C. Regarding `CNC(=O)n1nc(Oc2ccc([N+](=O)[O-])cc2C(F)(F)F)c(Cl)c1C`, the melting point lay within 157 to 158 °C. The figure for `COc1cc(N)c(Cl)cc1Cn1nc(-c2ccc(C(F)(F)F)cc2)[nH]c1=O` is above 270 °C; for `COc1ccc(Nc2ccn(-c3ccccc3)n2)cc1` it is 96 to 98 °C. In the case of `OC1CCC2(c3c[nH]cn3)Cc3ccccc3C12` (centres undefined) it was 183 to 186 °C; in that of `CC(=O)NNc1nc(O)nc(-c2ccc(Cl)cc2)n1`, 250 °C. As to `CCNCCc1c[nH]c2ccc(Cn3cncn3)cc12`, the melting point was 106 to 107 °C. The figure for `Oc1ccc(-c2nn(C3CCCCC3)c3c(Cl)cccc23)cc1` is 176 to 177 °C; for `Nc1[nH]c(=O)c(C(=O)CCC2CCN(CC3CCCCC3)CC2)cc1Cl` it is 164 °C; for `O=C(Nc1cc2nc(-c3ccc(C(=O)C4CCCCC4)cc3)[nH]c2cn1)C1CCCCC1` it is 235 °C. The figure for `Cc1[nH]c2ccccc2c1CCCN1CCC(c2noc3cc(Cl)ccc23)CC1` is 108 to 110 °C; for `CC(C)CC(=O)Nc1ccc(-c2ccnc3c(C(=O)c4cccs4)cnn23)s1` it is 268 to 270 °C; for `O=C(O)CNC(=O)c1nc2ccc(NCCCN3CCC(OC(c4ccccc4)c4ccccc4)CC3)nn2n1` it is 256 to 258 °C. In the case of `O=C(Nc1ccnc(Cl)c1)NC1CCCC1` it was 119 to 121 °C; in that of `CCN(CCCC1CCN(CC(=O)N2c3ccccc3C(=O)Nc3cccnc32)CC1)C(=O)C(C)(C)CC`, 136 to 138 °C. In the case of `COCCOc1cc(N(C)S(=O)(=O)c2ccccn2)c2[nH]c(C3=NCC(CN4CCS(=O)CC4)S3)cc2c1` (centres undefined), the melting point was in the range of 182 to 183 °C. In turn, `CCCc1c(OCCCCc2ccc3c(Cl)c(OC)c(OC)c(Cl)c3c2)ccc(C(=O)O)c1O` returned a melting point of 181 to 182 °C. The figure for `COC(=O)c1nc2sc(CC(C)C)c(C)c2c(=O)[nH]1` is 173 to 175 °C; for `CC(C(=O)C(O)C1OC(n2cc(F)c(=O)[nH]c2=O)C(O)C1O)c1ccccc1` (mixture of isomers) it is 133 to 134 °C. The figure for `OCc1[nH]c(=S)n(C2CCc3ccccc3C2)c1CO` (centres undefined) is 199 to 200 °C; for `O=C(Nc1ccccc1)O[C@H]1COC(c2cc3ccccc3[nH]2)=N[C@@H]1c1ccccc1` (racemic) it is 166 °C; for `CC1CC(=O)NN=C1c1ccc2c(c1)N(C)C(=O)CO2` (centres undefined) it is 215 to 218 °C. On to `CCCn1c(=O)c2[nH]c(/C=C/c3ccc(OC)c(OC)c3)nc2n(CCC)c1=O`, for which the melting point worked out at 196 °C. The figure for `Cc1cc(C)cc(-c2cnn3c(-c4cccc(-c5nnn(CCN6CCCC6)n5)c4)ccnc23)c1` is 60 °C. With `CC(=O)NC1C2CC(=O)CC1C(N)=C(O)C2=O` (centres undefined), the melting point is above 280 °C.

As to `O=c1ccn(CCO)c(C(O)c2cccnc2)c1OCc1ccccc1` (centres undefined), the melting point lay within 182 to 183 °C.

`O=C(Cl)c1cc(Oc2ccc(C(F)(F)F)cc2Cl)ccc1[N+](=O)[O-]` yielded a melting point of 118 to 120 °C. In the case of `CC(C)CNc1cc[nH]c(=S)c1C#N` it was 117 to 119 °C. `CC(C)(C)OC(=O)N1C(=O)[C@H](O)[C@@H]1c1ccccc1` returned a melting point of 132 °C. The figure for `N#Cc1c(N2CCN(C(=O)c3ccco3)CC2)c2cccnc2n(Cc2ccccc2)c1=O` is 206 °C; for `COC1(OCC#Cc2ccc(Cl)nc2)C=CC=NC1` (centres undefined) it is 100 to 101 °C. The figure for `COC(=O)Nc1ccc(OCc2nc3ccccc3s2)c(Cl)c1` is 133 to 135 °C. The figure for `COc1cc(CCC2(C)OCc3c2cnc(C)c3O)cc(OC)c1OC` (centres undefined) is 219 °C; for `c1ccc(-c2ccc3nc(C4(c5ccc6[nH]nnc6c5)N=c5ccccc5=N4)[nH]c3c2)cc1` it is above 280 °C; for `NC(=O)c1nc(-c2cccc(O)c2)nc2c1[nH]c(=O)n2-c1ccccc1C(F)(F)F` it is 363 to 365 °C.

`CC(N=c1[nH]c(-c2ccccc2)c(-c2ccnc(Nc3ccccc3)n2)s1)N(C)C` (centres undefined): the melting point was 196 to 197 °C.

The compound `CCOC(=O)c1ncc2[nH]c3cccc(OCc4cccc(F)c4)c3c2c1COC` displayed a melting point of 188 °C. In the case of `C=Cc1c(C(=O)OC)nc(Cl)c(Cl)c1N` it was 96 to 97 °C; in that of `CCCCCn1c2ccccc2c2cc(C(=O)OCC)ncc21`, 92 to 93 °C; in that of `CCn1c(Oc2ccc(F)cc2)nnc1[C@@H](C)N(C)S(=O)(=O)c1ccc(Cl)c(Cl)c1`, 126 °C.

In turn, `CSC(=O)C(=O)c1cc(NC=O)ccn1` yielded a melting point of 145 to 148 °C.

Consider `CCOC=C(C(=O)O)C(=O)C1CC1`, for which the melting point lay in the range of 108 to 113 °C. As to `OC(CCCl)c1ccccc1` (centres undefined), the melting point lay in the range of 56 to 57 °C. In the case of `CCc1oc2ccc(C(C)C(=O)O)cc2c(=O)c1C` (centres undefined) it was 196 to 198 °C.
